Values of other authors in patent publication US9840652B2, “Water-based drilling fluid with cyclodextrin shale stabilizer” (Halliburton Energy Services, Inc., priority 2012, dated 2017).

How the values were obtained:
[1] = tested on: Cyprinus carpio (common carp)
[2] = tested on: Daphnia magna
[3] = tested on: desmodesmus subspicatus

OC[C@H]1O[C@@H]2O[C@H]3[C@H](O)[C@@H](O)[C@@H](O[C@H]4[C@H](O)[C@@H](O)[C@@H](O[C@H]5[C@H](O)[C@@H](O)[C@@H](O[C@H]6[C@H](O)[C@@H](O)[C@@H](O[C@H]7[C@H](O)[C@@H](O)[C@@H](O[C@H]8[C@H](O)[C@@H](O)[C@@H](O[C@H]1[C@H](O)[C@H]2O)O[C@@H]8CO)O[C@@H]7CO)O[C@@H]6CO)O[C@@H]5CO)O[C@@H]4CO)O[C@@H]3CO [β-cyclodextrin]
96-hr LC50 [1]: 7561 µg/mL | 48-hr EC50 [2]: > 100 µg/mL | 72-hr density EC50 [3]: > 100 µg/mL
